According to paper PMC2361347 (British Journal of Cancer, 2006):
Where two headings read alike, the source gives them in different places.

Assays:
[1] = tested on: KBM5; design: method as in Golemovic et al, 2005; settings: KBM5 cell line; ref Golemovic et al, 2005; cited from earlier work
[2] = tested on: Ba/F3 cells transfected to express Bcr-Abl Wild-type p210; assay: cells; settings: Mus musculus, BaF3, read-out: Proliferation IC50
[3] = tested on: Ba/F3 cells transfected to express Bcr-Abl Wild-type p210+IL-3; assay: cells; settings: Mus musculus, BaF3, read-out: Proliferation IC50
[4] = tested on: mice injected with BCR-ABL-transformed haematopoietic cell lines or primary marrow cells; settings: ref Weisberg et al, 2005; cited from earlier work
[5] = tested on: Ba/F3 cells transfected to express Bcr-Abl F486S (p210); assay: cells; settings: Mus musculus, BaF3, read-out: Proliferation IC50
[6] = tested on: Ba/F3 cells transfected to express Bcr-Abl E255K (p185); assay: cells; settings: Mus musculus, BaF3, read-out: Proliferation IC50
[7] = tested on: Ba/F3 cells transfected to express Bcr-Abl E275K (p185); assay: cells; settings: Mus musculus, BaF3, read-out: Proliferation IC50
[8] = tested on: Ba/F3 cells transfected to express Bcr-Abl M237I (p185); assay: cells; settings: Mus musculus, BaF3, read-out: Proliferation IC50
[9] = tested on: Ba/F3 cells transfected to express Bcr-Abl K285N (p185); assay: cells; settings: Mus musculus, BaF3, read-out: Proliferation IC50
[10] = tested on: Ba/F3 cells transfected to express Bcr-Abl F317V (p185); assay: cells; settings: Mus musculus, BaF3, read-out: Proliferation IC50
[11] = tested on: Ba/F3 cells transfected to express Bcr-Abl E355A (p185); assay: cells; settings: Mus musculus, BaF3, read-out: Proliferation IC50
[12] = tested on: Ba/F3 cells transfected to express Bcr-Abl F359C (p185); assay: cells; settings: Mus musculus, BaF3, read-out: Proliferation IC50
[13] = tested on: Ba/F3 cells transfected to express Bcr-Abl E281K (p185); assay: cells; settings: Mus musculus, BaF3, read-out: Proliferation IC50
[14] = tested on: Ba/F3 cells transfected to express Bcr-Abl G250V (p185); assay: cells; settings: Mus musculus, BaF3, read-out: Proliferation IC50
[15] = tested on: imatinib-resistant BCR-ABL mutants; settings: number of mutants / mutants tested; Table 1
[16] = tested on: Ba/F3 cells transfected to express Bcr-Abl E255V (p210); assay: cells; settings: Mus musculus, BaF3, read-out: Proliferation IC50
[17] = tested on: Ba/F3 cells transfected to express Bcr-Abl L387F (p185); assay: cells; settings: Mus musculus, BaF3, read-out: Proliferation IC50
[18] = tested on: KBM7; design: method as in Golemovic et al, 2005; settings: KBM7 cell line; ref Golemovic et al, 2005; cited from earlier work
[19] = tested on: Ba/F3 cells transfected to express Bcr-Abl E255K (p210); assay: cells; settings: Mus musculus, BaF3, read-out: Proliferation IC50
[20] = tested on: Ba/F3 cells transfected to express Bcr-Abl F317L (p210); assay: cells; settings: Mus musculus, BaF3, read-out: Proliferation IC50
[21] = tested on: Ba/F3 cells transfected to express Bcr-Abl F317C (p185); assay: cells; settings: Mus musculus, BaF3, read-out: Proliferation IC50
[22] = tested on: Ba/F3 cells transfected to express Bcr-Abl Y253H (p185); assay: cells; settings: Mus musculus, BaF3, read-out: Proliferation IC50
[23] = tested on: Ba/F3 cells transfected to express Bcr-Abl T315I (p210); assay: cells; settings: Mus musculus, BaF3, read-out: Proliferation IC50
[24] = tested on: Ba/F3 cells transfected to express Bcr-Abl E292K (p210); assay: cells; settings: Mus musculus, BaF3, read-out: Proliferation IC50
[25] = tested on: T315I mutant; settings: Table 1
[26] = tested on: Ba/F3 cells transfected to express Bcr-Abl E255D (p185); assay: cells; settings: Mus musculus, BaF3, read-out: Proliferation IC50
[27] = tested on: Ba/F3 cells transfected to express Bcr-Abl F359V (p185); assay: cells; settings: Mus musculus, BaF3, read-out: Proliferation IC50
[28] = tested on: Ba/F3 cells transfected to express Bcr-Abl E355G (p185); assay: cells; settings: Mus musculus, BaF3, read-out: Proliferation IC50
[29] = tested on: Ba/F3 cells transfected to express Bcr-Abl F311V (p185); assay: cells; settings: Mus musculus, BaF3, read-out: Proliferation IC50
[30] = tested on: imatinib-resistant CML patients and Ph+ ALL patients; settings: cited from earlier work; for CML patients who have responded: early-phase clinical findings
[31] = design: method as in Kantarjian et al, 2006; settings: patients receiving 400 mg b.i.d.; ref Kantarjian et al, 2006; cited from earlier work
[32] = tested on: Ba/F3 cells transfected to express Bcr-Abl M388L (p185); assay: cells; settings: Mus musculus, BaF3, read-out: Proliferation IC50
[33] = tested on: Ba/F3 cells transfected to express Bcr-Abl L248V (p185); assay: cells; settings: Mus musculus, BaF3, read-out: Proliferation IC50
[34] = tested on: Ba/F3 cells transfected to express Bcr-Abl G250E (p185); assay: cells; settings: Mus musculus, BaF3, read-out: Proliferation IC50
[35] = tested on: Ba/F3 cells transfected to express Bcr-Abl A380S (p185); assay: cells; settings: Mus musculus, BaF3, read-out: Proliferation IC50
[36] = tested on: Ba/F3 cells transfected to express Bcr-Abl G250A (p185); assay: cells; settings: Mus musculus, BaF3, read-out: Proliferation IC50
[37] = tested on: imatinib-resistant CML mouse models; design: method as in Weisberg et al, 2005; settings: ref Weisberg et al, 2005; cited from earlier work
[38] = tested on: newly diagnosed patients in the chronic phase of CML; settings: cited from earlier work; for annual rate of progression (resulting in death): IRIS study
[39] = accelerated phase CML patients, ref Kantarjian et al, 2006
[40] = blast-phase CML patients, ref Kantarjian et al, 2006
[41] = chronic phase CML patients, ref Kantarjian et al, 2006
[42] = newly diagnosed chronic-phase patients, ref Simonsson, 2005

In the case of `Cc1cn(-c2cc(NC(=O)c3ccc(C)c(Nc4nccc(-c5cccnc5)n4)c3)cc(C(F)(F)F)c2)cn1` [AMN107], the “times more potent than imatinib” value [1] is given as 43 times, the IC50 [2] is given as 0.025 ± 0.001 µM and the IC50 [3] is given as over 10 µM. For the same molecule, the survival of mice [4] was “prolong the survival”, the IC50 [5] was 0.075 ± 0.007 µM and the IC50 [6] was 0.308 ± 0.042 µM. For the same molecule, the IC50 [7] was 0.044 ± 0.0171 µM, the IC50 [8] was 0.043 ± 0.0087 µM and the IC50 [9] was 0.057 ± 0.012 µM. It also gave an IC50 [10] of 0.028 ± 0.004 µM, an IC50 [11] of 0.035 ± 0.0067 µM and an IC50 [12] of 0.258 ± 0.061 µM. The IC50 [13] was 0.04 ± 0.0098 µM, the IC50 [14] was 0.019 ± 0.0014 µM and the “imatinib-resistant BCR-ABL mutants against which activity is maintained” value [15] was 32/33. The IC50 [16] was 0.791 ± 0.067 µM, the IC50 [17] was 0.046 ± 0.0072 µM and the “times more potent than imatinib” value [18] was 60 times. It also gave an IC50 [19] of 0.548 ± 0.072 µM, an IC50 [20] of 0.091 ± 0.0065 µM and an IC50 [21] of 0.02 ± 0.0031 µM. For the same molecule, the IC50 [22] was 0.7 ± 0.116 µM, the IC50 [23] was over 10 µM and the IC50 [24] was 0.081 ± 0.008 µM. For the same molecule, the “activity against the T315I mutant” value [25] was “no significant activity”, the IC50 [26] was 0.027 ± 0.0031 µM and the IC50 [27] was 0.161 ± 0.061 µM. For the same molecule, the IC50 [28] was 0.047 ± 0.008 µM, the IC50 [29] was 0.155 ± 0.031 µM and the maximum tolerated dose ([30]; Phase I, 50–1200 mg day−1 for up to 385 days, ref Kantarjian et al, 2006) was 600 mg b.i.d. For the same molecule, the cytogenetic responses [30, 39] was 48%, the haematological responses [30, 39] was 72% and the cytogenetic responses [30, 40] was 27%. For the same molecule, the haematological responses [30, 40] was 39%, the cytogenetic responses [30, 41] was 53% and the haematological responses [30, 41] was 92%. For the same molecule, the “CML patients who have responded” value ([30]; early, chronic-phase patients) was “over 90%”, the “imatinib-resistant Ph+ ALL patients who responded” value ([30]; of 13 Ph+ ALL patients, ref Kantarjian et al, 2006) was “Two” and the “CML patients who have responded” value ([30]; patients with advanced disease) was “Greater than 70%”. For the same molecule, the apparent half-life [31] was 15 h, the “mean peak plasma level” value [31] was 3.6 µM and the “mean trough plasma level” value [31] was 1.7 µM. It also gave an IC50 [32] of 0.018 ± 0.0026 µM, an IC50 [33] of 0.102 ± 0.013 µM and an IC50 [34] of 0.145 ± 0.032 µM. The IC50 [35] was 0.164 ± 0.027 µM, the IC50 [36] was 0.065 ± 0.0056 µM and the survival [37] was “prolong survival”.
In the case of `Cc1ccc(NC(=O)c2ccc(CN3CCN(C)CC3)cc2)cc1Nc1nccc(-c2cccnc2)n1` [Imatinib], the “annual rate of progression (resulting in death)” value (from here on “annual rate of progression”) ([38]; after 1 year of therapy) is given as 3.4%, the “annual rate of progression” value ([38]; after 2 years of therapy) is given as 7.5% and the “annual rate of progression” value ([38]; after 3 years of therapy) is given as 4.8%. For the same molecule, the “annual rate of progression” value ([38]; after 4 years of therapy) was 1.5%, the complete cytogenetic responses [38, 42] was 86% and the complete haematologic remissions [38, 42] was 98%.
